Measurements: patent US20140024663A1, “ATB(0,+) AMINO ACID TRANSPORTER AS A DRUG TARGET FOR TREATMENT OF ESTROGEN RECEPTOR-POSITIVE BREAST CANCER” (GEORGIA HEALTH SCIENCES UNIVERSITY RESEARCH INSTITUTE, INC., priority 2012, published 2014)

Target: T1, Human SLC6A14 (Homo sapiens, UniProt Q9UN76)
T1 construct: expressed in transfected cells; host or cells: Xenopus laevis oocytes, microinjected with human SLC6A14 cRNA
T1 sequence (Q9UN76 1-642): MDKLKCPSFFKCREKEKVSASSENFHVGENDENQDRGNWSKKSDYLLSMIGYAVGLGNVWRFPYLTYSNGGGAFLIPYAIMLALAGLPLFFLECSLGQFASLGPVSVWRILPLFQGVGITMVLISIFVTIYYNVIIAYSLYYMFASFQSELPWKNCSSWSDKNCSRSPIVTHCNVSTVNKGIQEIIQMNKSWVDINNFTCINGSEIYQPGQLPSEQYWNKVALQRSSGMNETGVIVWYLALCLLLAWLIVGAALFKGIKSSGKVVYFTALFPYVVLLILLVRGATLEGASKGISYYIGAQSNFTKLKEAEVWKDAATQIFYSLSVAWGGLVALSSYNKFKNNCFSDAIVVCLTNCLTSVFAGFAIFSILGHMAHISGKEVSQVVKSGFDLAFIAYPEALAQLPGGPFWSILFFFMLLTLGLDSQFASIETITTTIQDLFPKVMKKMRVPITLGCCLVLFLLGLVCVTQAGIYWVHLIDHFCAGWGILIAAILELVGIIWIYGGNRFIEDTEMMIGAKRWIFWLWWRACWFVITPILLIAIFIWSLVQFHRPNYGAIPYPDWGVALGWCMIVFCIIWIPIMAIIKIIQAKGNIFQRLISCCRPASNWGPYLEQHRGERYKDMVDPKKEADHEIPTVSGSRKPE
Experiment: SLC6A14 transport function in X. laevis oocytes (two-microelectrode voltage-clamp)
Format: cell-based
Conditions: for Hill coefficient of Na+-activation kinetics (number of Na+ involved in the activation process): SLC6A14-mediated transport, amino acid 1 mM, Cl- constant at 100 mM, three oocytes; for inward currents on perifusion of SLC6A14-expressing oocytes: amino acid 100 M (so in the source), in the presence of NaCl
Source text: FIGS. 3A and 3B. Natactivation kinetics of SLC6A14-mediated transport of leucine (FIG. 3A) and arginine and glutamine (FIG. 3B). Human SLC6A14 was expressed heterologously in X. laevis oocytes by microinjection of cRNA. Four days following injection, oocytes were used for electrophysiological studies using the two-microelectrode voltage-clamp method. […] Since the expression levels varied from oocyte to oocyte resulting in varying magnitudes of amino acid-induced currents, the currents were normalized by taking the magnitude of the currents induced at 100 mM Na^+ as 1 in each oocyte and calculating the magnitude of the currents induced at other concentrations of Na^+ as a fraction of this maximal current. The experiments were done with three different oocytes and the results are given as means±SE. Insets, Hill plots.
FIG. 4. Cl^−-activation kinetics of SLC6A14-mediated transport of leucine, arginine, and glutamine. […] The experiments were done with three different oocytes and the results are given as means±SE.
FIGS. 5A to 5C. Blockade of SLC6A14-mediated transport of leucine (FIG. 5A), glutamine (FIG. 5B), and arginine (FIG. 5C) by α-MT. Oocytes injected with human SLC6A14 cRNA were perifused with 100 µM leucine, 100 μM glutamine, or 100 μM arginine under varying experimental conditions as indicated.
Analysis of SLC6A14 transport function in X. laevis oocytes. SLC6A14-mediated transport of leucine, glutamine, and arginine and its blockade by α-MT were studied using the X. laevis oocyte heterologous expression system as described previously (Hatanaka et al., 2001, J Clin Invest; 107:1035-1043; and Karunakaran et al., 2008, Biochem J; 414:343-355). Human cloned SLC6A14 cDNA was used in these studies.

Row | SMILES | Hill coefficient of Na+-activation kinetics (number of Na+ involved in the activation process) | inward currents on perifusion of SLC6A14-expressing oocytes
1 | N=C(N)NCCC[C@H](N)C(=O)O [arginine] | 2.1 | induced inward currents
2 | NC(=O)CC[C@H](N)C(=O)O [glutamine] | 2.4 | induced inward currents
3 | CC(C)C[C@H](N)C(=O)O [leucine] | 2.2 | induced inward currents
